Measurements as given in PubChem BioAssay (NCI).
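Cultured in 96-well plates, cells were exposed to test compound for 48 hours across five concentrations. TGI is the concentration that stops growth completely.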

Key:
Test in all cases: growth of human tumour cells (NCI), 48 h
[1] = tested on: A549 NSCLC
[2] = tested on: ACHN renal
[3] = tested on: UACC-257 melanoma
[4] = tested on: SK-MEL-2 melanoma
[5] = tested on: MDA-N
[6] = tested on: HS 578T breast
[7] = tested on: LOX IMVI melanoma
[8] = tested on: SN12C renal
[9] = tested on: MALME-3M melanoma
[10] = tested on: OVCAR-3 ovarian
[11] = tested on: EKVX NSCLC
[12] = tested on: NCI-H226 lung
[13] = tested on: CCRF-CEM leukemia
[14] = tested on: U251 CNS
[15] = tested on: PC-3 prostate
[16] = tested on: NCI/ADR-RES ovarian
[17] = tested on: NCI-H460 lung
[18] = tested on: UACC-62 melanoma
[19] = tested on: A498 renal
[20] = tested on: NCI-H23 lung
[21] = tested on: MDA-MB-231 breast
[22] = tested on: HOP-92 NSCLC
[23] = tested on: SK-MEL-5 melanoma
[24] = tested on: CAKI-1 renal
[25] = tested on: SW-620 colon
[26] = tested on: SNB-19 CNS
[27] = tested on: SK-OV-3 ovarian
[28] = tested on: HOP-62 NSCLC
[29] = tested on: OVCAR-4 ovarian
[30] = tested on: HT29 colon
[31] = tested on: SF-295 CNS
[32] = tested on: BT-549 breast
[33] = tested on: SF-268 CNS
[34] = tested on: OVCAR-5 ovarian
[35] = tested on: OVCAR-8 ovarian
[36] = tested on: IGROV1 ovarian
[37] = tested on: M14 melanoma
[38] = tested on: HCC-2998 colon
[39] = tested on: UO-31 renal
[40] = tested on: KM12 colon
[41] = tested on: RXF 393 renal
[42] = tested on: 786-0 renal
[43] = tested on: T-47D breast
[44] = tested on: NCI-H522 lung
[45] = tested on: DU-145 prostate
[46] = tested on: COLO 205 colon
[47] = tested on: MCF7 breast
[48] = tested on: HCT-15 colon
[49] = tested on: SNB-75 CNS
[50] = tested on: TK-10 renal
[51] = tested on: MOLT-4 leukemia
[52] = tested on: RPMI-8226 leukemia
[53] = tested on: HL-60(TB) leukemia
[54] = tested on: SF-539 CNS
[55] = tested on: MDA-MB-435
[56] = tested on: SK-MEL-28 melanoma
[57] = tested on: HCT-116 colon
[58] = tested on: K-562 leukemia
[59] = tested on: SR leukemia

SMILES: CN(CCNC(=O)c1cn(C)c2c1ccc1ccccc12)CCNC(=O)c1cn(C)c2c1ccc1ccccc12
- TGI [1]: 11.1 µM
- TGI [2]: > 100 µM
- TGI [3]: 6.62 µM
- TGI [4]: 4.6 µM
- TGI [5]: 4.25 µM
- TGI [6]: 3.11 µM
- TGI [7]: > 100 µM
- TGI [8]: 10.6 µM
- TGI [9]: 5.13 µM
- TGI [10]: 11.4 µM
- TGI [11]: 6.93 µM
- TGI [12]: > 75.1 µM
- TGI [13]: > 100 µM
- TGI [14]: 4.58 µM
- TGI [15]: 7.02 µM
- TGI [16]: > 100 µM
- TGI [17]: 3.72 µM
- TGI [18]: 12.7 µM
- TGI [19]: > 34.5 µM
- TGI [20]: > 100 µM
- TGI [21]: 3.8 µM
- TGI [22]: 5.26 µM
- TGI [23]: > 100 µM
- TGI [24]: > 100 µM
- TGI [25]: > 100 µM
- TGI [26]: > 100 µM
- TGI [27]: 22.3 µM
- TGI [28]: 5.53 µM
- TGI [29]: 16.2 µM
- TGI [30]: > 100 µM
- TGI [31]: > 22.2 µM
- TGI [32]: 6.87 µM
- TGI [33]: > 21.3 µM
- TGI [34]: 3.52 µM
- TGI [35]: > 100 µM
- TGI [36]: 4.65 µM
- TGI [37]: 2.97 µM
- TGI [38]: 1.49 µM
- TGI [39]: 4.68 µM
- TGI [40]: 2.98 µM

SMILES: COc1cc(OCCN(C)C)c2[nH]c(C(=O)N3CC(CCl)c4c3cc(N)c3ccccc43)cc2c1 (configuration not stated)
- TGI [41]: < 0.01 µM
- TGI [4]: < 0.01 µM
- TGI [42]: < 0.01 µM
- TGI [5]: < 0.01 µM
- TGI [7]: < 0.01 µM
- TGI [10]: < 0.01 µM
- TGI [11]: 0.0521 µM
- TGI [43]: 1.79 µM
- TGI [12]: 0.0311 µM
- TGI [13]: > 100 µM
- TGI [44]: < 0.01 µM
- TGI [45]: 1.08 µM
- TGI [15]: 0.736 µM
- TGI [16]: 0.0498 µM
- TGI [18]: < 0.01 µM
- TGI [19]: < 0.01 µM
- TGI [20]: < 0.01 µM
- TGI [21]: 1.17 µM
- TGI [22]: < 0.01 µM
- TGI [46]: 0.0102 µM
- TGI [25]: 0.265 µM
- TGI [27]: 1.32 µM
- TGI [28]: < 0.01 µM
- TGI [31]: 0.017 µM
- TGI [47]: 0.011 µM
- TGI [32]: 0.379 µM
- TGI [48]: 1.32 µM
- TGI [49]: 0.02 µM
- TGI [34]: 0.213 µM
- TGI [37]: < 0.01 µM
- TGI [38]: < 0.01 µM

SMILES: NC(=O)c1ncn(C2C=CC(CP(=O)(O)O)C2)c1N (configuration not stated)
- TGI [1]: > 100 µM
- TGI [2]: > 100 µM
- TGI [41]: > 100 µM
- TGI [3]: > 100 µM
- TGI [50]: > 100 µM
- TGI [4]: > 100 µM
- TGI [51]: > 100 µM
- TGI [42]: > 100 µM
- TGI [5]: > 100 µM
- TGI [6]: > 100 µM
- TGI [7]: > 100 µM
- TGI [8]: > 100 µM
- TGI [9]: > 100 µM
- TGI [10]: > 100 µM
- TGI [11]: > 100 µM
- TGI [43]: > 100 µM
- TGI [52]: > 100 µM
- TGI [12]: > 100 µM
- TGI [13]: > 100 µM
- TGI [14]: > 100 µM
- TGI [45]: > 100 µM
- TGI [15]: > 100 µM
- TGI [16]: > 100 µM
- TGI [17]: > 100 µM
- TGI [18]: > 100 µM
- TGI [20]: > 100 µM
- TGI [21]: > 100 µM
- TGI [22]: > 100 µM
- TGI [53]: > 100 µM
- TGI [23]: > 100 µM
- TGI [54]: > 100 µM
- TGI [24]: > 100 µM
- TGI [46]: > 100 µM
- TGI [25]: > 100 µM
- TGI [26]: > 100 µM
- TGI [55]: > 100 µM
- TGI [56]: > 100 µM
- TGI [27]: > 100 µM
- TGI [28]: > 100 µM
- TGI [29]: > 100 µM
- TGI [30]: > 100 µM
- TGI [31]: > 100 µM
- TGI [47]: > 100 µM
- TGI [33]: > 100 µM
- TGI [48]: > 100 µM
- TGI [49]: > 100 µM
- TGI [34]: > 100 µM
- TGI [35]: > 100 µM
- TGI [36]: > 100 µM
- TGI [57]: > 100 µM
- TGI [58]: > 100 µM
- TGI [37]: > 100 µM
- TGI [38]: > 100 µM
- TGI [39]: > 100 µM
- TGI [59]: > 100 µM
- TGI [40]: > 100 µM
